{"source": "patent US9265253B2", "about": "“Use of macrocyclic picolinamides as fungicides” (DOW AGROSCIENCES LLC, priority 2013, dated 2016)"}
{"tested_on": "Puccinia triticina; Synonym: Puccinia recondite f. Sp. Tritici", "test": "Wheat Brown Rust (PUCCRT) disease control", "type": "in vivo", "conditions": "Puccinia triticina, topical, 24 h, 1 Day Protectant, rate 100 ppm; read-out: PUCCRT 1 DP disease control", "description": "(§1) Technical grades of materials were dissolved in acetone, which were then mixed with nine volumes of water containing 110 ppm Triton X-100. The fungicide solutions were applied onto wheat seedlings using an automated booth sprayer to run-off. All sprayed plants were allowed to air dry prior to further handling. All fungicides were evaluated using the aforementioned method for their activity vs. all target diseases. Wheat leaf blotch and brown rust activity were also evaluated using track spray applications, in which case the fungicides were formulated as EC formulations, containing 0.1% Trycol 5941 in the spray solutions. Wheat plants (variety Yuma) were grown from seed in a greenhouse in 50% mineral soil/50% soil-less Metro mix until the first leaf was fully emerged, with 7-10 seedlings per pot. These plants were inoculated with an aqueous spore suspension of Septoria tritici either prior to or after fungicide treatments. After inoculation the plants were kept in 100% relative humidity (one day in a dark dew chamber followed by two to three days in a lighted dew chamber at 20° C.) to permit spores to germinate and infect the leaf. The plants were then transferred to a greenhouse set at 20° C. for disease to develop. When disease symptoms were fully expressed on the 1st leaves of untreated plants, infection levels were assessed on a scale of 0 to 100 percent disease severity. Percent disease control was calculated using the ratio of disease severity on treated plants relative to untreated plants. Wheat plants (variety Yuma) were grown from seed in a greenhouse in 50% mineral soil/50% soil-less Metro mix until the first leaf was fully emerged, with 7-10 seedlings per pot. These plants were inoculated with an aqueous spore suspension of Puccinia triticina either prior to or after fungicide treatments. After inoculation the plants were kept in a dark dew room at 22° C. with 100% relative humidity overnight to permit spores to germinate and infect the leaf. The plants were then transferred to a greenhouse set at 24° C. for disease to develop. Fungicide formulation, application and disease assessment followed the procedures as described in the Example A.", "units": {"pest or weed control at 100 ppm": "%"}}
{"smiles": "COc1ccnc(C(=O)N[C@H]2CCC[C@H](CCOc3ccccc3)[C@@H](OCC3CC3)[C@H](C)OC2=O)c1OCOC(C)=O", "note": "[Compound F142]", "pest or weed control at 100 ppm": "80 to 100"}
{"smiles": "COc1ccnc(C(=O)N[C@H]2CCC[C@H](C)[C@@H](Oc3ccccc3)[C@H](C)OC2=O)c1O", "note": "[Compound F38]", "pest or weed control at 100 ppm": "80 to 100"}
{"smiles": "C=CCO[C@@H]1[C@@H](Cc2ccc(F)cc2)CCC[C@H](NC(=O)c2nccc(OC)c2O)C(=O)O[C@H]1C", "note": "[Compound F12]", "pest or weed control at 100 ppm": "0 to 80"}
{"smiles": "COc1ccnc(C(=O)N[C@H]2CCC[C@H](Cc3ccc(C)cc3)[C@@H](OCC3CC3)[C@H](C)OC2=O)c1O", "note": "[Compound F42]", "pest or weed control at 100 ppm": "80 to 100"}
{"smiles": "CC[C@H]1CCC[C@H](NC(=O)c2nccc(OC)c2O)C(=O)O[C@@H](C)[C@@H]1OCC(C)C", "note": "[Compound F48]", "pest or weed control at 100 ppm": "80 to 100"}
{"tested_on": "Puccinia triticina; Synonym: Puccinia recondite f. Sp. Tritici", "test": "Wheat Brown Rust (PUCCRT) disease control", "type": "in vivo", "conditions": "Puccinia triticina, topical, 24 h, 1 Day Protectant, rate 121.5 g/H; read-out: PUCCRT 1 DP disease control", "description": "as §1", "units": {"pest or weed control at 121.5 g/ha": "%"}}
{"smiles": "COc1ccnc(C(=O)N[C@H]2CCC[C@H](CCOc3ccccc3)[C@@H](OCC3CC3)[C@H](C)OC2=O)c1OCOC(C)=O", "note": "[Compound F142]", "pest or weed control at 121.5 g/ha": "80 to 100"}
{"tested_on": "Puccinia triticina; Synonym: Puccinia recondite f. Sp. Tritici", "test": "Wheat Brown Rust (PUCCRT) disease control", "type": "in vivo", "conditions": "Puccinia triticina, topical, 72 h, 3 Day Curative, rate 100 ppm; read-out: PUCCRT 3 DC disease control", "description": "as §1", "units": {"pest or weed control at 100 ppm": "%"}}
{"smiles": "COc1ccnc(C(=O)N[C@H]2CCC[C@H](CCOc3ccccc3)[C@@H](OCC3CC3)[C@H](C)OC2=O)c1OCOC(C)=O", "note": "[Compound F142]", "pest or weed control at 100 ppm": "80 to 100"}
{"smiles": "COc1ccnc(C(=O)N[C@H]2CCC[C@H](C)[C@@H](Oc3ccccc3)[C@H](C)OC2=O)c1O", "note": "[Compound F38]", "pest or weed control at 100 ppm": "80 to 100"}
{"smiles": "C=CCO[C@@H]1[C@@H](Cc2ccc(F)cc2)CCC[C@H](NC(=O)c2nccc(OC)c2O)C(=O)O[C@H]1C", "note": "[Compound F12]", "pest or weed control at 100 ppm": "80 to 100"}
{"smiles": "COc1ccnc(C(=O)N[C@H]2CCC[C@H](Cc3ccc(C)cc3)[C@@H](OCC3CC3)[C@H](C)OC2=O)c1O", "note": "[Compound F42]", "pest or weed control at 100 ppm": "80 to 100"}
{"smiles": "CC[C@H]1CCC[C@H](NC(=O)c2nccc(OC)c2O)C(=O)O[C@@H](C)[C@@H]1OCC(C)C", "note": "[Compound F48]", "pest or weed control at 100 ppm": "80 to 100"}
{"tested_on": "Puccinia triticina; Synonym: Puccinia recondite f. Sp. Tritici", "test": "Wheat Brown Rust (PUCCRT) disease control", "type": "in vivo", "conditions": "Puccinia triticina, topical, 72 h, 3 Day Curative, rate 121.5 g/H; read-out: PUCCRT 3 DC disease control", "description": "as §1", "units": {"pest or weed control at 121.5 g/ha": "%"}}
{"smiles": "COc1ccnc(C(=O)N[C@H]2CCC[C@H](CCOc3ccccc3)[C@@H](OCC3CC3)[C@H](C)OC2=O)c1OCOC(C)=O", "note": "[Compound F142]", "pest or weed control at 121.5 g/ha": "80 to 100"}
{"tested_on": "Mycosphaerella graminicola; Anamorph: Septoria tritici", "test": "Leaf Blotch of Wheat (SEPTTR) disease control", "type": "in vivo", "conditions": "Zymoseptoria tritici, 24 h, 1 Day Protectant, rate 100 ppm; read-out: SEPTTR 1 DP disease control", "description": "as §1, with “plants.” for “plants. Wheat plants (variety Yuma) were grown from seed in a greenhouse in 50% mineral soil/50% soil-less Metro mix until the first leaf was fully emerged, with 7-10 seedlings per pot. These plants were inoculated with an aqueous spore suspension of Puccinia triticina either prior to or after fungicide treatments. After inoculation the plants were kept in a dark dew room at 22° C. with 100% relative humidity overnight to permit spores to germinate and infect the leaf. The plants were then transferred to a greenhouse set at 24° C. for disease to develop. Fungicide formulation, application and disease assessment followed the procedures as described in the Example A.”", "units": {"pest or weed control at 100 ppm": "%"}}
{"smiles": "COc1ccnc(C(=O)N[C@H]2CCC[C@H](CCOc3ccccc3)[C@@H](OCC3CC3)[C@H](C)OC2=O)c1OCOC(C)=O", "note": "[Compound F142]", "pest or weed control at 100 ppm": "80 to 100"}
{"smiles": "COc1ccnc(C(=O)N[C@H]2CCC[C@H](C)[C@@H](Oc3ccccc3)[C@H](C)OC2=O)c1O", "note": "[Compound F38]", "pest or weed control at 100 ppm": "80 to 100"}
{"smiles": "C=CCO[C@@H]1[C@@H](Cc2ccc(F)cc2)CCC[C@H](NC(=O)c2nccc(OC)c2O)C(=O)O[C@H]1C", "note": "[Compound F12]", "pest or weed control at 100 ppm": "80 to 100"}
{"smiles": "COc1ccnc(C(=O)N[C@H]2CCC[C@H](Cc3ccc(C)cc3)[C@@H](OCC3CC3)[C@H](C)OC2=O)c1O", "note": "[Compound F42]", "pest or weed control at 100 ppm": "80 to 100"}
{"smiles": "CC[C@H]1CCC[C@H](NC(=O)c2nccc(OC)c2O)C(=O)O[C@@H](C)[C@@H]1OCC(C)C", "note": "[Compound F48]", "pest or weed control at 100 ppm": "80 to 100"}
{"tested_on": "Mycosphaerella graminicola; Anamorph: Septoria tritici", "test": "Leaf Blotch of Wheat (SEPTTR) disease control", "type": "in vivo", "conditions": "Zymoseptoria tritici, 24 h, 1 Day Protectant, rate 121.5 g/H; read-out: SEPTTR 1 DP disease control", "description": "as §1, with “plants.” for “plants. Wheat plants (variety Yuma) were grown from seed in a greenhouse in 50% mineral soil/50% soil-less Metro mix until the first leaf was fully emerged, with 7-10 seedlings per pot. These plants were inoculated with an aqueous spore suspension of Puccinia triticina either prior to or after fungicide treatments. After inoculation the plants were kept in a dark dew room at 22° C. with 100% relative humidity overnight to permit spores to germinate and infect the leaf. The plants were then transferred to a greenhouse set at 24° C. for disease to develop. Fungicide formulation, application and disease assessment followed the procedures as described in the Example A.”", "units": {"pest or weed control at 121.5 g/ha": "%"}}
{"smiles": "COc1ccnc(C(=O)N[C@H]2CCC[C@H](CCOc3ccccc3)[C@@H](OCC3CC3)[C@H](C)OC2=O)c1OCOC(C)=O", "note": "[Compound F142]", "pest or weed control at 121.5 g/ha": "80 to 100"}
{"tested_on": "Mycosphaerella graminicola; Anamorph: Septoria tritici", "test": "Leaf Blotch of Wheat (SEPTTR) disease control", "type": "in vivo", "conditions": "Zymoseptoria tritici, 72 h, 3 Day Curative, rate 100 ppm; read-out: SEPTTR 3 DC disease control", "description": "as §1, with “plants.” for “plants. Wheat plants (variety Yuma) were grown from seed in a greenhouse in 50% mineral soil/50% soil-less Metro mix until the first leaf was fully emerged, with 7-10 seedlings per pot. These plants were inoculated with an aqueous spore suspension of Puccinia triticina either prior to or after fungicide treatments. After inoculation the plants were kept in a dark dew room at 22° C. with 100% relative humidity overnight to permit spores to germinate and infect the leaf. The plants were then transferred to a greenhouse set at 24° C. for disease to develop. Fungicide formulation, application and disease assessment followed the procedures as described in the Example A.”", "units": {"pest or weed control at 100 ppm": "%"}}
{"smiles": "COc1ccnc(C(=O)N[C@H]2CCC[C@H](CCOc3ccccc3)[C@@H](OCC3CC3)[C@H](C)OC2=O)c1OCOC(C)=O", "note": "[Compound F142]", "pest or weed control at 100 ppm": "80 to 100"}
{"smiles": "C=CCO[C@@H]1[C@@H](Cc2ccc(F)cc2)CCC[C@H](NC(=O)c2nccc(OC)c2O)C(=O)O[C@H]1C", "note": "[Compound F12]", "pest or weed control at 100 ppm": "80 to 100"}
{"smiles": "COc1ccnc(C(=O)N[C@H]2CCC[C@H](Cc3ccc(C)cc3)[C@@H](OCC3CC3)[C@H](C)OC2=O)c1O", "note": "[Compound F42]", "pest or weed control at 100 ppm": "80 to 100"}
{"smiles": "CC[C@H]1CCC[C@H](NC(=O)c2nccc(OC)c2O)C(=O)O[C@@H](C)[C@@H]1OCC(C)C", "note": "[Compound F48]", "pest or weed control at 100 ppm": "80 to 100"}
{"tested_on": "Mycosphaerella graminicola; Anamorph: Septoria tritici", "test": "Leaf Blotch of Wheat (SEPTTR) disease control", "type": "in vivo", "conditions": "Zymoseptoria tritici, 72 h, 3 Day Curative, rate 121.5 g/H; read-out: SEPTTR 3 DC disease control", "description": "as §1, with “plants.” for “plants. Wheat plants (variety Yuma) were grown from seed in a greenhouse in 50% mineral soil/50% soil-less Metro mix until the first leaf was fully emerged, with 7-10 seedlings per pot. These plants were inoculated with an aqueous spore suspension of Puccinia triticina either prior to or after fungicide treatments. After inoculation the plants were kept in a dark dew room at 22° C. with 100% relative humidity overnight to permit spores to germinate and infect the leaf. The plants were then transferred to a greenhouse set at 24° C. for disease to develop. Fungicide formulation, application and disease assessment followed the procedures as described in the Example A.”", "units": {"pest or weed control at 121.5 g/ha": "%"}}
{"smiles": "COc1ccnc(C(=O)N[C@H]2CCC[C@H](CCOc3ccccc3)[C@@H](OCC3CC3)[C@H](C)OC2=O)c1OCOC(C)=O", "note": "[Compound F142]", "pest or weed control at 121.5 g/ha": "0 to 80"}
